Data reported in US11484536B2, “Method of treating metastatic cancer in a subject with a protein inhibitor” (City University of Hong Kong, priority 2020, dated 2022).
“Also recorded” adds a separate entry of the source.

Experiments:
HeLa cells [1] = assay: Focal adhesion dynamics after nocodazole release (Vinculin puncta); type: cell-based; conditions: nocodazole treatment
Excerpt: The indicated time points represent at which NOC was removed from the HeLa cells, followed by staining the cells with anti-Vinculin antibody and Phalloidin. […] The indicated time points of FIGS. 3B and 3C represent at which the HeLa cells were released from cold arrest, followed by being stained with antibodies against EEA1 or LAMP1.
Focal adhesion (FA) dynamics is a key process during cell migration and therefore the effects of V1 treatment on spatiotemporal regulation of FA dynamics have been assessed. HeLa cells were plated on cover slides at 24-well plates and treated with nocodazole (NOC) in the presence or absence of V1 (1 μM). At indicated times, after removing NOC, the cells were stained with anti-Vinculin antibody and Phalloidin, and the Vinculin puncta were quantified.

HeLa cells [2] = assay: LC3-II and p62 accumulation immunoblot; type: cell-based
Procedure: FIG. 12A is a synthetic scheme of a V1 analog carrying a clickable terminal alkynyl group. FIG. 12B is a synthetic scheme of azide-biotin. FIG. 12C is a synthetic scheme of Vi-biotin.
FIG. 23A is a schematic diagram illustrating the structure of 6J-1.
Subsequently, biotin-V1 was administered to HeLa cell extracts, the V1 binding complex was purified with streptavidin beads, and subjected to mass analysis. There were 85 potential V1 binding proteins identified in three independent experiments with high fidelity (FIG. 13A). Among them, 32 proteins were clustered in endocytosis and vesicle-mediated transport pathways using KOBAS online software.
In this example, a 6-morpholino-1,3,5-triazine derivative, 6J-1 was synthesized and used as an exemplary example to illustrate the inhibitory effect of 6-morpholino-1,3,5-triazine derivatives on endosomal trafficking and metastasis. As illustrated above, the induction of accumulation of LC3-II and p62 by biotin-V1 would accompany with the induction of vacuoles as well as the inhibition of transferrin degradation (see Example 4).

[3] = test system: HeLa, A549, or MDA-MB-231 cells; assay: Cytotoxicity of 6J-1 by PI staining and living cell number; type: cell-based
Procedure: FIG. 24A is a bar chart showing the percentage of cell death of HeLa cells treated with or without 6J-1 at the indicated concentrations for 24 or 48 h. FIG. 24B is a bar chart showing the percentage of cell death of A549 cells treated with or without 6J-1 at the indicated concentrations for 24 or 48 h. FIG. 24C is a bar chart showing the percentage of cell death of MDA-MB-231 cells treated with or without 6J-1 at the indicated concentrations for 24 or 48 h.
FIG. 25A is a line chart showing the number of HeLa cells treated with or without 6J-1 at the indicated concentrations for 0, 24 or 48 h. FIG. 25B is a line chart showing the number of MDA-MB-231 cells treated with or without 6J-1 at the indicated concentrations for 0, 24 or 48 h. FIG. 25C is a line chart showing the number of A549 cells treated with or without 6J-1 at the indicated concentrations for 0, 24 or 48 h.
The cytotoxicity of 6J-1 on different cancer cell lines has been examined by PI staining, and the cell number of living cells was quantified as well. As shown in FIGS. 24A-24C and 25A-25C, 6J-1 is non-cytotoxic to HeLa, A549, or MDA-MB-231 cells at concentrations of 0.01-10 μM. Even at a concentration of as high as 100 μM, there were over 80% of the 6J-1-treated cells remained alive.

[4] = test system: 4T1, A549, HCCLM3, and HepG2; assay: Colony formation of cancer cell lines; type: cell-based; conditions: indicated concentrations
Excerpt: FIG. 26 is a series of optical images showing colony formation of 4T1, A549, HCCLM3, and HepG2 cells treated with or without 6J-1 at the indicated concentrations.
(§1) The inhibitory effect of 6J-1 on colony formation of several cancer cell lines, including 4T1, A549, HCCLM3, and HepG2 has been examined. […] Overall, 6J-1 is found to be as potent as V1.

A549 and HepG2 cells = assay: Migration of cancer cells treated with 6J-1; type: cell-based; conditions: 6J-1 1 μM
Procedure: FIG. 27A is a pair of microscopic images showing the migration of A549 cells treated with or without 6J-1 (1 μM). FIG. 27B is a series of microscopic images showing the migration of HepG2 cells treated with or without V1 (1 μM) or 6J-1 (1 μM).
as §1

A549 cells = assay: Invasion of cancer cells treated with 6J-1; type: cell-based; conditions: 6J-1 1 μM
Procedure: FIG. 28 is a pair of microscopic images showing the invasion of A549 cells treated with or without 6J-1 (1 μM).
as §1

[5] = test system: 4T1 mouse breast cancer cells; assay: Spontaneous cancer mouse model, fat pad injection of 4T1 cells into nude mice; conditions: 6J-1 30 mg/kg, oral, every day, 4 weeks
Procedure: FIG. 5A is a schematic diagram showing a method for determining the anti-metastatic activity of V1 in female nude mice with their fat pads injected with 4T1 cells, where V1 is administered to the mice via an oral gauge. FIG. 5B is a series of optical images showing the excised lungs of the mice treated with a buffer or V1 (15 or 30 mg/kg, daily) via the oral gauge for 4 weeks. FIG. 5C is a line plot showing the number of tumor nodules in the excised lungs against different concentrations of V1.
FIG. 29A is a series of optical images showing the excised lungs of female nude mice treated with a buffer or 6J-1 (30 mg/kg, oral delivery, daily) for 4 weeks. FIG. 29B is a line plot showing the number of tumor nodules in the excised lungs of the mice of FIG. 29A.
First, we studied V1's anti-metastatic effects in a spontaneous cancer mouse model by fat pad injecting 4T1 mouse breast cancer cells into nude mice (FIG. 5A). After tumors were palpable (˜5 mm, around day 9), the mice were randomly divided into three groups (six mice per group) orally treated with or without V1 (15 or 30 mg/ml) every day. After 4 weeks, the mice were sacrificed; the primary tumors and lungs of the mice were harvested for analysis.

[6] = test system: 4T1, 4T07, and MDA-MB-231 cells; assay: Trans-well migration assay; type: cell-based, human or mouse; conditions: indicated concentrations, 18 h, compared with V1
Procedure: FIG. 2A is a series of microscopic images and bar charts showing the migration of 4T1, 4T07, and MDA-MB-231 cells in transwell plates in the presence or absence of V1 (1 μM). FIG. 2B is a series of microscopic images and bar charts showing the invasion of 4T1, 4T07, and MDA-MB-231 cells in invasion chambers in the presence or absence of V1 (1 μM). FIG. 2C is a series of optical images and a bar chart showing the closure of a scratch-wound plated with 4T1 cells, treated with or without V1 (1 μM), after 0, 24, and 48 h. FIG. 2D is a series of optical images and a bar chart showing the closure of a scratch-wound plated with 4T07 cells, treated with or without V1 (1 μM), after 0, 24, and 48 h. FIG. 2E is a series of microscopic images showing the migration of 4T07 cells in transwell plates in the presence or absence of V1 or LA at indicated concentrations after 18 h. […]
In this example, the cytotoxicity and the anti-migration effects of V1 are compared with latrunculin A (LA), an F-actin destabilizer. […] The breast cancer cells were placed on the upper chamber of the transwell plates or invasion chambers coated with Matrigel in the presence or absence of V1, after 18 h of incubation, the cells at the lower chamber were stained with crystal violet and quantified. […]

[7] = biological target: T1, recombinant CapZβ-CapZα heterodimer (Homo sapiens, UniProt P47756); assay: Streptavidin pulldown with purified recombinant CapZα and CapZβ; type: binding; conditions: in vitro
T1 construct: His6
Procedure: FIG. 14D is a pair of immunoblots of purified CapZα and CapZβ recombinant proteins after incubated with Biotin-V1. FIG. 14E is a CapZβ immunoblot of lysate of HeLa cells treated with biotin or Biotin-V1.
The expression of these genes in HeLa cells were knocked out by CRISPR/Cas9 to assess whether the ability of V1 inducing vacuole formation or endocytosis arrest would be affected by these knockdowns. […] CapZα and CapZβ are the α and β subunits of the actin capping protein (CP), also called CapZ, and the CapZβ-CapZα heterodimeric complex normally binds to the barbed ends of actin filaments to prevent further filament elongation. To investigate whether biotin-V1 or biotin alone would be able to bind with the CapZβ-CapZα heterodimeric complex, the inventors have incubated biotin or bioin-V1 with purified His6-CapZα and His6-CapZβ recombinant proteins, or purified CapZα and CapZβ proteins, followed by subjecting the mixture to streptavidin pulldown. The streptavidin pulldowns were analyzed by His6 immunoblotting, coomassie blue staining or CapZβ immunoblotting. […] In addition, in another experiment, HeLa cells were treated with biotin or biotin-V1 and the lysate thereof was incubated with streptavidin beads, followed by subjecting to streptavidin pulldown.

With `COC(=O)Nc1nc2ccc(C(=O)c3cccs3)cc2[nH]1` [NOC, nocodazole] as the compound, how does the “effect on microtubules and formation of FAs” value (HeLa cells [1]) read?
The value was “depolymerized the microtubules and stabilized the formation of FAs”.

With `OCCOCCN(c1ccccc1)c1nc(N/N=C/c2cccc(I)c2)nc(N2CCOCC2)n1` [6J-1] as the compound, how does the “accumulation of LC3-II and p62” value (HeLa cells [2]) read?
The value was “highly comparable result as V1; also recorded: induces comparable accumulation of LC3-II and p62 in HeLa cells as V1”.

What about the “treated cells remained alive” value ([3]; 100 μM) of the same compound?
Its value is “over 80%”.

And the cytotoxicity ([3]; 0.01-10 μM, 24 or 48 h)?
The cytotoxicity was “non-cytotoxic”.

And the colony formation [4]?
Its colony formation is “inhibitory on the colony formation of all the aforementioned cell lines in a dose dependent manner”.

And the “migration of cancer cells” value (A549 and HepG2 cells)?
The value was “capable of inhibiting migration and invasion of cancer cells”.

And the “invasion of cancer cells” value (A549 cells)?
Its value is “capable of inhibiting migration and invasion of cancer cells”.

And the “metastasis of 4T1 cells (tumor nodules in the lungs)” value [5]?
Its value is “significantly inhibited the metastasis of 4T1 cells”.

`C/C1=C/C(=O)O[C@@H]2C[C@@H](CC[C@H](C)/C=C\C=C\CC1)O[C@@](O)([C@@H]1CSC(=O)N1)C2` [LA, latrunculin A] was tested. Which “migration of 4T07 cells” value [6] did it give?
Its value is “much lower effect on the migration of 4T07 cells at similar concentrations of V1”.

With `O=C(O)CCCC[C@@H]1SC[C@@H]2NC(=O)N[C@@H]21` [biotin] as the compound, how does the “interaction with recombinant CapZβ-CapZα heterodimer” value [7] read?
Its value is “not biotin alone”.
